Data reported in patent publication US11618909B2, “Acid-tolerant Saccharomyces cerevisiae and use thereof” (JIANGNAN UNIVERSITY, priority 2020, dated 2023).

Test system: mutant MTPfo-4
Assay: Tolerance to other acids by OD600, mutant MTPfo-4
Format: cell-based, Saccharomyces cerevisiae
Conditions: pH 2.44, OD600 over 72 h
Method: To analyze the tolerance of the mutant MTPfo-4 to other acids, 10 acids, including 2 inorganic acids of HCl and H3PO4, and 8 organic acids of lactic acid, malic acid, fumaric acid, succinate acid, tartaric acid, furoic acid, gluconic acid, and citric acid, were added exogenously in the present invention to analyze the acid tolerance of cells. The initial pH was controlled to 2.44. The cells were sampled every 12 h for consecutive 72 h. The acid tolerance of cells was analyzed by determining the OD600. […] The cells were sampled every 12 h for consecutive 72 h. The acid resistance of the cells was analyzed again by determining the OD600.

SMILES | effect of the acid on the mutant MTPfo-4
O=C(O)/C=C/C(=O)O [fumaric acid] | inhibitory effect
O=C(O)c1ccco1 [furoic acid] | inhibitory effect
O=C(O)CCC(=O)O [succinic acid] | inhibitory effect
O=C(O)C(O)C(O)C(=O)O (stereo not shown) [tartaric acid] | inhibitory effect
